From the SangsterLogP compilation

Cc1cc(C)c(C(=O)C(C)CN2CCCCC2)c(C)c1 (stereo not drawn)
logP: 3.98

CCCOc1ccc(C(=O)CCN2CCCCC2)cc1
logP: 3.72

Cc1ccc(C(=O)CCN2CCCCC2)cc1
logP: 3.55

CCCOc1ccc(C(=O)CCN2CCCCC2)c(C)c1
logP: 3.88

CCCOc1cc(C)c(C(=O)C(C)CN2CCCCC2)c(C)c1 (stereo not drawn)
logP: 4.11

CC(C)(CN1CCCCC1)C(=O)c1ccccc1
logP: 3.78

Cc1cc(C)c(C(=O)CCN2CCCCC2)c(C)c1
logP: 3.7

Cc1ccc(C(=O)C(C)CN2CCCCC2)c(C)c1 (stereo not drawn)
logP: 3.85

Cc1cccc(C)c1C(=O)C(C)(C)CN1CCCCC1
logP: 4.2

CCCOc1ccc(C(=O)C(C)CN2CCCCC2)cc1 (stereo not drawn)
logP: 3.81

Cc1cc(C)c(C(=O)C(C)(C)CN2CCCCC2)c(C)c1
logP: 4.36

Cc1ccc(C(=O)C(C)CN2CCCCC2)cc1 (stereo not drawn)
logP: 3.65

Cc1ccc(C(=O)CCN2CCCCC2)c(C)c1
logP: 3.71

Cc1ccccc1C(=O)C(C)CN1CCCCC1 (stereo not drawn)
logP: 3.69

CCCOc1ccc(C(=O)C(C)CN2CCCCC2)c(C)c1 (stereo not drawn)
logP: 4

CCCOc1cc(C)c(C(=O)CCN2CCCCC2)c(C)c1
logP: 3.84

CC(CN1CCCCC1)C(=O)c1ccccc1 (stereo not drawn)
logP: 3.51

Cc1ccccc1C(=O)CCN1CCCCC1
logP: 3.54

CCCOc1cc(C)c(C(=O)C(C)(C)CN2CCCCC2)c(C)c1
logP: 4.51

Cc1ccc(C(=O)C(C)(C)CN2CCCCC2)cc1
logP: 3.92

Cc1cccc(C)c1C(=O)C(C)CN1CCCCC1 (stereo not drawn)
logP: 3.81

CCCOc1ccc(C(=O)C(C)(C)CN2CCCCC2)cc1
logP: 4.07

Cc1cccc(C)c1C(=O)CCN1CCCCC1
logP: 3.53
